Measured values taken from paper PMC2574882 (The Biochemical journal, 2008).
“Also recorded” adds a separate entry of the source.

Experiments:
[1] = NMR titration with ferric ions; format: binding; details: pH 4.0, 298 K, FeCl3, precipitate in the NMR tube
Solubility for NMR = format: physicochemical; details: 80% H2O/10% ^2H2O/10% 2H6-DMSO
[2] = Absorption titration with ferric citrate; format: binding; details: by relative association constants
human CCK1 receptor = target: T1, human CCK1 receptor (Homo sapiens, UniProt P32238); assay: Receptor binding assay, CCK1 receptor; details: 1 μM desferrioxamine, COS-7 cells; triplicates, ANOVA
T1 sequence (P32238 1-428): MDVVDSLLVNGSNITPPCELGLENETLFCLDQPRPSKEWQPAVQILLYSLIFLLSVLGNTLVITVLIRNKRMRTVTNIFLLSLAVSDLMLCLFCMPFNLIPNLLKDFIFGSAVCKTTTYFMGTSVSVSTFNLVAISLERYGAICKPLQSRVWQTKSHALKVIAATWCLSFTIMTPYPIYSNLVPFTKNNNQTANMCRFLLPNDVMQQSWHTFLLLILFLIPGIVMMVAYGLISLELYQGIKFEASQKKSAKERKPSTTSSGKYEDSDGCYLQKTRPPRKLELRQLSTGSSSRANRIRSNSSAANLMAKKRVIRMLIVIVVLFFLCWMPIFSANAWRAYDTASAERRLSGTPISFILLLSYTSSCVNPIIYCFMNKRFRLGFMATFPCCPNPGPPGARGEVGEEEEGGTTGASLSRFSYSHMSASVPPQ

human CCK2 receptor = target: T2, human CCK2 receptor (Homo sapiens, UniProt P32239); assay: Receptor binding assay, CCK2 receptor; details: 1 μM desferrioxamine, COS-7 cells; triplicates, ANOVA
T2 sequence (P32239 1-447): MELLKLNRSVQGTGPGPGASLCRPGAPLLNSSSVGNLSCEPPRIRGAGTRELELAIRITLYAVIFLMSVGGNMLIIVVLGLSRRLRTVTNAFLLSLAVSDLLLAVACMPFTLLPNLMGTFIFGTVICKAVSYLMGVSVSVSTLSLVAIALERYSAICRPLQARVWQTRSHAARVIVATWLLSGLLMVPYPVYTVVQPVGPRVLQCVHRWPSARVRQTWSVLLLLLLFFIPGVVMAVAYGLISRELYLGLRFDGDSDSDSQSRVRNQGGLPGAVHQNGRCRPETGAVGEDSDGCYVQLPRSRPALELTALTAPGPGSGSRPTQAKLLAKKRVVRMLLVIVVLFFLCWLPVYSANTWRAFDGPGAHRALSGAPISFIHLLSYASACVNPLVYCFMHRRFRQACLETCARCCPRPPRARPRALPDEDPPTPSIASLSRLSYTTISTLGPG

[3] = system: cell proliferation and migration; details: cited from earlier work
[4] = cited from earlier work
[5] = Absorption spectroscopy titration with ferric chloride; details: 40 μM peptide, 298 K

Q: Which “solubility of Fe^3+-peptide complex (in words)” value [1] does the source give for CSCC[C@H](NC(=O)[C@H](Cc1ccc(O)cc1)NC(=O)[C@@H](N)CC(=O)O)C(=O)NCC(=O)N[C@@H](Cc1c[nH]c2ccccc12)C(=O)N[C@@H](CCSC)C(=O)N[C@@H](CC(=O)O)C(=O)N[C@@H](Cc1ccccc1)C(N)=O [CCK8] here?
A: formation of an insoluble Fe^3+-peptide complex

Q: And the “solubility (in words)” value (Solubility for NMR)?
A: required the presence of ^2H6-DMSO (80% H2O/10% ^2H2O/10% 2H6-DMSO) to achieve solubility at 0.23 mM

Q: For O=C(O)CC(O)(CC(=O)O)C(=O)O [citrate], which “relative Fe^3+ binding (in words)” value [2] is on record?
A: binds Fe^3+ ions more tightly than any of the CCK peptides

Q: For CC(=O)N(O)CCCCCNC(=O)CCC(=O)N(O)CCCCCNC(=O)CCC(=O)N(O)CCCCCN [desferrioxamine], which “effect on binding of labelled CCK8SO4, CCK1 receptor (in words)” value (human CCK1 receptor) is on record?
A: no significant effect; also recorded: inability

Q: And the “effect on binding of labelled CCK8SO4, CCK2 receptor (in words)” value (human CCK2 receptor)?
A: no significant effect; also recorded: inability

Q: And the “effect on biological activity of glycine-extended gastrin (in words)” value ([3]; stimulation of cell proliferation and migration)?
A: completely blocked the biological activity of glycine-extended gastrin

Q: With N[C@@H](Cc1ccc(OP(=O)(O)O)cc1)C(=O)O [phosphotyrosine] as the compound, how does the “pKa of the phosphoryl group” value [4] read?
A: 5.9

Q: For CCK4, which “absorbance change on addition of ferric chloride, pH 4.0 (in words)” value ([5]; pH 4.0, 275 nm) is on record?
A: no change in the absorbance; also recorded: did not cause any change in absorption

Q: What about the “absorbance change / binding on addition of ferric chloride, pH 6.5 (in words)” value ([5]; pH 6.5, 275 nm) of the same compound?
A: No evidence of binding of ferric ions; also recorded: no increase in absorbance was seen

Q: Which “requirement of ferric ions for biological activity (in words)” value [3] does the source give for “ZGPWLEEEEEAYGWMDFamide [amidated gastrin]” here?
A: ferric ions were not required for the biological activity
